Measured values published in patent US10308682B2, “Inhibition of tumor growth with aggregates of small molecules” (BRANDEIS UNIVERSITY, priority 2013, dated 2019).

Tests used:
HeLa cells [1] = experiment: Flow cytometry cell-cycle analysis of HeLa cells; assay type: cell-based; conditions: 400 μM, 24 h
Protocol: FIG. 3 depicts the response of cancer cells toward molecular aggregates of 1. (a) Intracellular concentration of 1 in HeLa cells treated with 1 for 12 h at different temperatures measure by LC-MS (left bar=37° C.; right bar=4° C.). (b) Confocal images of FITC annexin V and PI stained HeLa cells without incubation with 1 (live cells), HeLa cells treated with 400 μM of 1 for 36 h, and necrotic HeLa cells (induced by DMSO). Scale bar=20 μm. (c) Fluorescence emission of 7-AAD and 1 in cell lysate (15,000 cell/mL) at λex=488 nm. (d) Cell cycle analysis, by flow cytometry, of HeLa cells treated with 0, 300 or 400 μM of 1 for 24 h. Depletion of G2/M phase occurs in cells treated with 400 μM of 1. (e) Cell migration assay of HeLa cells treated with 0, 300, 400 or 500 μM of 1. The gaps were created on the HeLa cells of 100% confluence in 24 well plates, and measured after incubation for 18 h.
Because apoptosis associates with cell cycle, we examined the effect of the aggregates of 1 on the cell cycle. […] The cell-cycle distribution of the HeLa cells incubated with 400 μM of 1 indicates significant decrease of the peaks of S phase and G2/M phase. […] The slight right shift of the whole spectra results from the overlapping of emission of 7-AAD and 1 (FIG. 3c). But such shift barely hampers the distribution of cell-cycle of the spectra. The aggregates of 1 also delay the migration of the HeLa cells.

tubulin heterodimers = molecular target: T1, tubulin heterodimers (Sus scrofa, UniProt P02550+P02554); experiment: In vitro tubulin polymerization assay; assay type: biochemical
T1 construct: purchased Cytoskeleton
T1 sequence (P02550 whole entry): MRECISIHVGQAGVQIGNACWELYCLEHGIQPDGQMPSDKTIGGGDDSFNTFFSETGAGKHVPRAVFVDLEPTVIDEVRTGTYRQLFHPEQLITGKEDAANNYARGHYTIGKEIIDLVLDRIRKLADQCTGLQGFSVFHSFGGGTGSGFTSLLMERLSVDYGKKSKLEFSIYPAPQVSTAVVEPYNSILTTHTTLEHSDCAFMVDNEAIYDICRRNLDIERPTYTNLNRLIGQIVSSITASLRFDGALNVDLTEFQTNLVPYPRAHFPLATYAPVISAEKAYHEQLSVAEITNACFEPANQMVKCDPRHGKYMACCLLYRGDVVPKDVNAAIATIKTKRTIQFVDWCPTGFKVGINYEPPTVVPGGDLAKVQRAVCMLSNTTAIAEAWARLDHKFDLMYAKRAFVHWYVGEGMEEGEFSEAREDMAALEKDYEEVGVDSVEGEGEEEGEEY
T1 sequence (P02554 whole entry): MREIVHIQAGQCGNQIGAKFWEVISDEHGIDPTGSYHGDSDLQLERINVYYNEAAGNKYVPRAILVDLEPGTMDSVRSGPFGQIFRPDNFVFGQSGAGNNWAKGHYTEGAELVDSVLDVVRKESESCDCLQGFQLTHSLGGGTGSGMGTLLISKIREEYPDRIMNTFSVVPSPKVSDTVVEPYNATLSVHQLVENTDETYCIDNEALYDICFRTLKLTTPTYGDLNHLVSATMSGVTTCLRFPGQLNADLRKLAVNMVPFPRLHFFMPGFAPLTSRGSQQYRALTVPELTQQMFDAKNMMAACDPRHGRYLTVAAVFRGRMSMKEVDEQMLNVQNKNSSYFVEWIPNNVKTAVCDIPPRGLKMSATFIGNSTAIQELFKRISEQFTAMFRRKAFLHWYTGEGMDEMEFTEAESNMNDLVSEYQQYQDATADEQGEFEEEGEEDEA
Description: Tubulin polymerization assay in the presence of 1. In vitro tubulin polymerization reactions in (a) as prepared or (c) filtered reaction cocktail without 1 (control) or with different concentrations of 1. The amount of microtubule is in proportion to optical density at 340 nm. The calculated polymerization rate (Vmax) and the final tubulin polymer mass vs concentrations of 1 from tubulin polymerization in (b) as prepared or (d) filtered reaction cocktail. Negative stained TEM images of molecular aggregates of 1 binding with tubulin. Buffer (control) or 1 (final concentration at 200 to 500 μM) was introduced into reaction cocktail containing fully assembled microtubule (after 60 min of polymerization). The amount of microtubule remain unchanged after 30 min. (e) Molecular aggregates of 1 (400 μM) incubated with tubulins heterodimers in general tubulin buffer. Scale bar=40 nm. White arrows point at tubulin clusters on the molecular aggregates of 1. Confocal images of tubulin stained HeLa and other cell lines. (f) Time dependent cytotoxicity of 1 towards HeLa cells. Data are presented as mean±SD of three independent experiments. Tubulin staining of HeLa cells treated with as-prepared medium containing (g) 0 μM, (h) 200 μM, (i) 300 μM and (j) 400 μM of 1, and filtered medium (k) containing 400 μM of 1 for 24 h. Insets are 3× enlarged images. T98G (l, m) and PC12 (n, o) were also treated with as-prepared medium containing 0 or 400 μM of 1 for 24 h for tubulin staining DNA was counterstained blue by DAPI. Scale bar=10 μm. See also FIG. 12.
As the major function of tubulin is to polymerize into microtubule, we carried out in vitro tubulin polymerization assay to evaluate how the molecular aggregates of 1 affect the polymerization of tubulin. We incubated tubulin heterodimers (i.e., the α- and β-tubulin heterodimer, existing almost exclusively in heterodimer form in cytoplasm) with 1 at different concentrations and monitored the formation of microtubule (FIG. 5). […] At 300 μM of 1, the polymerization curve starts to deviate slightly from the control curve. […] To confirm that the molecular aggregates of 1, but not monomeric 1, inhibit the formation of microtubules, we filtrated of the reaction mixture by a 0.22 μm PVDF filter before the addition of tubulins. […] However, filtrated reaction mixtures containing 200 to 500 μM of 1 has similar polymerization curve to that of control.

microtubules = molecular target: T2, microtubules (Sus scrofa, UniProt P02550+P02554); experiment: Addition of 1 to fully assembled microtubules; assay type: biochemical; conditions: final concentration 200 to 500 μM, added after 60 min polymerization
T2 construct: purchased Cytoskeleton
T2 sequence (P02550 whole entry): as the sequence (P02550 whole entry) above
T2 sequence (P02554 whole entry): as the sequence (P02554 whole entry) above
Description: Tubulin polymerization assay in the presence of 1. In vitro tubulin polymerization reactions in (a) as prepared or (c) filtered reaction cocktail without 1 (control) or with different concentrations of 1. The amount of microtubule is in proportion to optical density at 340 nm. The calculated polymerization rate (Vmax) and the final tubulin polymer mass vs concentrations of 1 from tubulin polymerization in (b) as prepared or (d) filtered reaction cocktail. Negative stained TEM images of molecular aggregates of 1 binding with tubulin. Buffer (control) or 1 (final concentration at 200 to 500 μM) was introduced into reaction cocktail containing fully assembled microtubule (after 60 min of polymerization). The amount of microtubule remain unchanged after 30 min. (e) Molecular aggregates of 1 (400 μM) incubated with tubulins heterodimers in general tubulin buffer. Scale bar=40 nm. White arrows point at tubulin clusters on the molecular aggregates of 1. […]
Microtubules are highly dynamic, growing and shrinking at a constant rate. To determine whether molecular aggregates of 1 achieve the inhibition of microtubule formation through preventing microtubule growth or accelerating microtubule shrinkage, we applied 1 to the polymerization mixture after most of tubulin heterodimers already formed microtubules (60 min of pre-incubation) and monitored the change of microtubules.

HeLa cells [2] = experiment: Tubulin staining (tubulin tracker), HeLa cells; assay type: cell-based; conditions: 24 h
Protocol: Cells in exponential growth phase were seeded in glass bottomed culture chamber at 10,000 cell/mL. The cells were allowed for attachment for 24 h at 37° C., 5% CO2. The culture medium was removed, and new culture medium containing 1 at 0 or 400 μM was added. After 24 h of incubation, cells were washed with PBS buffer for 3 times and stained by Tubulin Tracker™ Green at 100 nM and DAPI 300 nM in PBS for 30 min at 37° C. in dark. The sample was rinsed three times in PBS, and the cells were kept in PBS for imaging.
To confirm that the aggregates of 1 clusters multiple tubulin heterodimers and inhibit the formation of microtubules inside live cells, we used a tubulin tracker that selectively binds to tubulin polymers (microtubules) over tubulin monomers to stain the HeLa cells treated with 1 at different concentrations for 24 h. […] As the tubulin tracker only stains microtubule (i.e., polymerized tubulin heterodimers), the fluorescence from the cluster indicates the tubulin heterodimers in the clusters are short microtubules. […] The loss of microtubules induced by molecular aggregates of 1 explains the origins of the delay of cell migration and the arrest of cell-cycle in HeLa cells incubated with 400 or 500 μM of 1.

[3] = Influence of surfactant Triton X-100 on hydrogel of 1; assay type: physicochemical; conditions: 1 at 10 mM
Protocol: FIG. 14 depicts the influence of a surfactant on self-assembly of 1. Triton X-100 was mixed with 1 (10 mM) before and after hydrogel formation. The hydrogel of 1 can tolerate up to 0.1% Triton X-100. Treated with 0.1% Triton X-100, the fibrillar aggregates of 1 tend to cross-link with each other instead of randomly dispersing, but the width of fibrillar aggregates remains unchanged.

O=C(Cc1ccc2ccccc2c1)N[C@@H](Cc1ccccc1)C(=O)N[C@@H](Cc1ccccc1)C(=O)O [Compound 1]
cell-cycle distribution (HeLa cells [1]): arrest the HeLa cells at the G1/G0 phase
polymerization rate (Vmax) (tubulin heterodimers; 200 μM or 300 μM, as prepared): barely inhibits the polymerization of tubulins
final amount of polymers (microtubule) (tubulin heterodimers; 300 μM, as prepared): slightly decreases the amount of microtubules
polymerization rate (Vmax) (tubulin heterodimers; 400 or 500 μM, as prepared): drastically decreases the Vmax
reduction of final amount of polymers (microtubule) (tubulin heterodimers; 400 or 500 μM, as prepared): about 30 % decrease
Vmax and final amount of polymers after filtration (tubulin heterodimers; 400 or 500 μM, filtered by 0.22 μm PVDF filter): only causes slight decreases in both Vmax and the final amount of polymers of tubulins
loss of preformed microtubules (microtubules): little notable loss of microtubules
microtubule morphology (HeLa cells [2]; 200 μM): essentially the same morphology and distribution as those in the control cells
microtubule morphology (HeLa cells [2]; 300 μM): a small amount of the microtubules appear to be shorter than those in the control cells
microtubule morphology (HeLa cells [2]; 400 μM): large clusters surrounded by scattered microtubule fibrils
microtubule morphology (HeLa cells [2]; 400 μM, medium filtered by 0.22 μm PVDF membrane): (almost) normal microtubule networks, with only few clusters
Triton X-100 tolerated by the hydrogel [3]: up to 0.1 % Triton X-100
